According to the NIST ThermoML archive (doi:10.1016/j.jct.2006.01.012):
Numbers after ± are expanded uncertainties.

Details: Liquid; for viscosity: Capillary tube (Ostwald / Ubbelohde) method; for mass density: isochoric method

CCCCCCC [heptane]
Details | mass density [kg/m3] | viscosity [mPa·s]
298.24 K, 100 kPa | – | 0.388 ± 0.013
302.46 K, 100 kPa | 675.91 ± 0.82 | –
306.79 K, 5000 kPa | – | 0.3779 ± 0.012
306.79 K, 10000 kPa | – | 0.4013 ± 0.013
307.61 K, 4760 kPa | 676.1 ± 0.8 | –
307.61 K, 11941 kPa | 683.2 ± 0.8 | –
314.57 K, 100 kPa | 665.62 ± 0.81 | –
323.93 K, 100 kPa | – | 0.2979 ± 0.0098
329.71 K, 100 kPa | 652.43 ± 0.8 | –
337.54 K, 5000 kPa | – | 0.28 ± 0.01
337.54 K, 10000 kPa | – | 0.2978 ± 0.0098
342.94 K, 100 kPa | 640.61 ± 0.78 | –
348.64 K, 100 kPa | – | 0.2354 ± 0.0078
353.76 K, 100 kPa | 630.86 ± 0.77 | –
369.35 K, 5000 kPa | – | 0.2116 ± 0.007
369.35 K, 10000 kPa | – | 0.2259 ± 0.0075
387 K, 5783 kPa | 610 ± 0.7 | –
387 K, 12460 kPa | 620.7 ± 0.8 | –
407.85 K, 5000 kPa | – | 0.1595 ± 0.0053
407.85 K, 10000 kPa | – | 0.1718 ± 0.0057
449.64 K, 5000 kPa | – | 0.122 ± 0.004
449.64 K, 10000 kPa | – | 0.1338 ± 0.0045
450.12 K, 4350 kPa | 543.7 ± 0.7 | –
450.12 K, 11492 kPa | 564.4 ± 0.7 | –
473.54 K, 5000 kPa | – | 0.1012 ± 0.0035
473.54 K, 10000 kPa | – | 0.113 ± 0.004
500.47 K, 6791 kPa | 492.7 ± 0.6 | –
500.47 K, 10720 kPa | 512.8 ± 0.6 | –

CCCCCCCC [octane]
Details | mass density [kg/m3] | viscosity [mPa·s]
298.24 K, 100 kPa | – | 0.508 ± 0.017
301.84 K, 100 kPa | 695.24 ± 0.85 | –
308.72 K, 5000 kPa | – | 0.4786 ± 0.016
308.72 K, 10000 kPa | – | 0.5043 ± 0.017
311.89 K, 4680 kPa | 691.6 ± 0.8 | –
311.89 K, 10642 kPa | 697.4 ± 0.9 | –
316.49 K, 100 kPa | 683.55 ± 0.83 | –
323.93 K, 100 kPa | – | 0.3829 ± 0.013
329.76 K, 100 kPa | 672.69 ± 0.82 | –
340.94 K, 100 kPa | 663.24 ± 0.81 | –
348.64 K, 100 kPa | – | 0.3034 ± 0.01
349.46 K, 5000 kPa | – | 0.3187 ± 0.01
349.46 K, 10000 kPa | – | 0.3364 ± 0.011
358.76 K, 100 kPa | 648.1 ± 0.8 | –
367.61 K, 5873 kPa | 648.8 ± 0.8 | –
367.61 K, 11461 kPa | 656.2 ± 0.8 | –
394.81 K, 5000 kPa | – | 0.2197 ± 0.0073
394.81 K, 10000 kPa | – | 0.2334 ± 0.0077
436.86 K, 5000 kPa | – | 0.1672 ± 0.0056
436.86 K, 10000 kPa | – | 0.1799 ± 0.006
437.97 K, 6430 kPa | 589.6 ± 0.7 | –
437.97 K, 11084 kPa | 599.5 ± 0.7 | –
467.46 K, 5000 kPa | – | 0.1338 ± 0.0045
467.46 K, 10000 kPa | – | 0.1458 ± 0.0049
516.64 K, 5712 kPa | 505.4 ± 0.6 | –
516.64 K, 9791 kPa | 525.2 ± 0.6 | –
